# Experimental data as given in PubChem BioAssay (NCI).
#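 How tested: cells in 96-well plates exposed to compound for 48 hours at five concentrations. GI50: concentration for 50% inhibition of growth. The concentration for full growth arrest is given as TGI.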
# What was measured:
# Experiment in all cases: NCI tumour cell line growth inhibition, 48 h
# T-47D breast = system: T-47D breast
# MDA-MB-435 = system: MDA-MB-435
# OVCAR-5 ovarian = system: OVCAR-5 ovarian
# U251 CNS = system: U251 CNS
# UACC-257 melanoma = system: UACC-257 melanoma
# SF-539 CNS = system: SF-539 CNS
# CAKI-1 renal = system: CAKI-1 renal
# SF-268 CNS = system: SF-268 CNS
# DU-145 prostate = system: DU-145 prostate
# NCI-H23 lung = system: NCI-H23 lung
# MOLT-4 leukemia = system: MOLT-4 leukemia
# HT29 colon = system: HT29 colon
# HCC-2998 colon = system: HCC-2998 colon
# SF-295 CNS = system: SF-295 CNS
# NCI/ADR-RES ovarian = system: NCI/ADR-RES ovarian
# SR leukemia = system: SR leukemia
# OVCAR-4 ovarian = system: OVCAR-4 ovarian
# MDA-MB-231 breast = system: MDA-MB-231 breast
# SN12C renal = system: SN12C renal
# M14 melanoma = system: M14 melanoma
# UACC-62 melanoma = system: UACC-62 melanoma
# TK-10 renal = system: TK-10 renal
# SK-MEL-28 melanoma = system: SK-MEL-28 melanoma
# KM12 colon = system: KM12 colon
# HCT-116 colon = system: HCT-116 colon
# 786-0 renal = system: 786-0 renal
# OVCAR-8 ovarian = system: OVCAR-8 ovarian
# SK-MEL-2 melanoma = system: SK-MEL-2 melanoma
# SK-OV-3 ovarian = system: SK-OV-3 ovarian
# SW-620 colon = system: SW-620 colon
# BT-549 breast = system: BT-549 breast
# RXF 393 renal = system: RXF 393 renal
# OVCAR-3 ovarian = system: OVCAR-3 ovarian
# HOP-62 NSCLC = system: HOP-62 NSCLC
# LOX IMVI melanoma = system: LOX IMVI melanoma
# MALME-3M melanoma = system: MALME-3M melanoma
# MCF7 breast = system: MCF7 breast
# SNB-19 CNS = system: SNB-19 CNS
# NCI-H522 lung = system: NCI-H522 lung
# SNB-75 CNS = system: SNB-75 CNS
# EKVX NSCLC = system: EKVX NSCLC
# A549 NSCLC = system: A549 NSCLC
# K-562 leukemia = system: K-562 leukemia
# UO-31 renal = system: UO-31 renal
# CCRF-CEM leukemia = system: CCRF-CEM leukemia
# HCT-15 colon = system: HCT-15 colon
# PC-3 prostate = system: PC-3 prostate
# HOP-92 NSCLC = system: HOP-92 NSCLC
# A498 renal = system: A498 renal
# IGROV1 ovarian = system: IGROV1 ovarian
# RPMI-8226 leukemia = system: RPMI-8226 leukemia
# SK-MEL-5 melanoma = system: SK-MEL-5 melanoma
# HS 578T breast = system: HS 578T breast
# HL-60(TB) leukemia = system: HL-60(TB) leukemia
# ACHN renal = system: ACHN renal
# NCI-H460 lung = system: NCI-H460 lung
# COLO 205 colon = system: COLO 205 colon
# NCI-H226 lung = system: NCI-H226 lung
smiles,measurement,setting,value
COc1cc([C@@H]2c3cc4c(cc3[C@@H](Nc3ccc(Cl)cc3C(=O)c3ccccc3Cl)[C@H]3COC(=O)[C@H]23)OCO4)cc(OC)c1OC,TGI,T-47D breast,> 100 µM
same,TGI,MDA-MB-435,0.397 µM
same,TGI,OVCAR-5 ovarian,> 100 µM
same,TGI,U251 CNS,0.364 µM
same,TGI,UACC-257 melanoma,> 100 µM
same,TGI,SF-539 CNS,0.198 µM
same,TGI,CAKI-1 renal,> 43.3 µM
same,TGI,SF-268 CNS,> 100 µM
same,TGI,DU-145 prostate,> 100 µM
same,TGI,NCI-H23 lung,> 53.8 µM
same,TGI,MOLT-4 leukemia,> 100 µM
same,TGI,HT29 colon,> 100 µM
same,TGI,HCC-2998 colon,> 100 µM
same,TGI,SF-295 CNS,> 37.4 µM
same,TGI,NCI/ADR-RES ovarian,> 37.7 µM
same,TGI,SR leukemia,0.425 µM
same,TGI,OVCAR-4 ovarian,> 100 µM
same,TGI,MDA-MB-231 breast,> 100 µM
same,TGI,SN12C renal,> 100 µM
same,TGI,M14 melanoma,> 100 µM
same,TGI,UACC-62 melanoma,> 72.4 µM
same,TGI,TK-10 renal,> 100 µM
same,TGI,SK-MEL-28 melanoma,34 µM
same,TGI,KM12 colon,0.289 µM
same,TGI,HCT-116 colon,> 100 µM
same,TGI,786-0 renal,> 100 µM
same,TGI,OVCAR-8 ovarian,> 36.2 µM
same,TGI,SK-MEL-2 melanoma,> 100 µM
same,TGI,SK-OV-3 ovarian,> 100 µM
same,TGI,SW-620 colon,> 46.1 µM
same,TGI,BT-549 breast,> 100 µM
same,TGI,RXF 393 renal,> 75.3 µM
same,TGI,OVCAR-3 ovarian,6.4 µM
same,TGI,HOP-62 NSCLC,16.9 µM
same,TGI,LOX IMVI melanoma,> 100 µM
same,TGI,MALME-3M melanoma,> 100 µM
same,TGI,MCF7 breast,> 100 µM
same,TGI,SNB-19 CNS,76.1 µM
same,TGI,NCI-H522 lung,0.237 µM
same,TGI,SNB-75 CNS,> 100 µM
same,TGI,EKVX NSCLC,> 100 µM
same,TGI,A549 NSCLC,> 100 µM
same,TGI,K-562 leukemia,> 100 µM
same,TGI,UO-31 renal,> 100 µM
COc1ccc(NC(=O)C2=C(SC)C(=O)N=C2N)cc1,TGI,T-47D breast,> 100 µM
same,TGI,MDA-MB-435,> 100 µM
same,TGI,U251 CNS,> 100 µM
same,TGI,CCRF-CEM leukemia,> 100 µM
same,TGI,HCT-15 colon,> 100 µM
same,TGI,UACC-257 melanoma,> 100 µM
same,TGI,PC-3 prostate,> 100 µM
same,TGI,CAKI-1 renal,> 100 µM
same,TGI,HOP-92 NSCLC,> 100 µM
same,TGI,SF-268 CNS,> 100 µM
same,TGI,DU-145 prostate,> 100 µM
same,TGI,NCI-H23 lung,> 100 µM
same,TGI,MOLT-4 leukemia,> 100 µM
same,TGI,A498 renal,> 100 µM
same,TGI,HT29 colon,> 100 µM
same,TGI,HCC-2998 colon,> 100 µM
same,TGI,SF-295 CNS,> 100 µM
same,TGI,IGROV1 ovarian,> 100 µM
same,TGI,NCI/ADR-RES ovarian,> 100 µM
same,TGI,SR leukemia,> 100 µM
same,TGI,RPMI-8226 leukemia,> 100 µM
same,TGI,SK-MEL-5 melanoma,> 100 µM
same,TGI,OVCAR-4 ovarian,> 100 µM
same,TGI,HS 578T breast,> 100 µM
same,TGI,MDA-MB-231 breast,> 100 µM
same,TGI,UACC-62 melanoma,> 100 µM
same,TGI,TK-10 renal,> 100 µM
same,TGI,HL-60(TB) leukemia,> 100 µM
same,TGI,SK-MEL-28 melanoma,> 100 µM
same,TGI,ACHN renal,> 100 µM
same,TGI,KM12 colon,> 100 µM
same,TGI,HCT-116 colon,> 100 µM
same,TGI,786-0 renal,> 100 µM
same,TGI,OVCAR-8 ovarian,> 100 µM
same,TGI,SK-MEL-2 melanoma,> 100 µM
same,TGI,NCI-H460 lung,> 100 µM
same,TGI,SK-OV-3 ovarian,> 100 µM
same,TGI,SW-620 colon,> 100 µM
same,TGI,BT-549 breast,> 100 µM
same,TGI,RXF 393 renal,> 100 µM
same,TGI,HOP-62 NSCLC,> 100 µM
same,TGI,LOX IMVI melanoma,> 100 µM
same,TGI,COLO 205 colon,> 100 µM
same,TGI,SNB-19 CNS,> 100 µM
same,TGI,SNB-75 CNS,> 100 µM
same,TGI,EKVX NSCLC,> 100 µM
same,TGI,K-562 leukemia,> 100 µM
same,TGI,UO-31 renal,> 100 µM
same,TGI,NCI-H226 lung,> 100 µM
COc1cc(/C=C\c2cccnc2Nc2ccccc2)cc(OC)c1OC,GI50,T-47D breast,5.3 µM
same,TGI,T-47D breast,47.6 µM
same,GI50,MDA-MB-435,5.63 µM
same,TGI,MDA-MB-435,43.3 µM
same,GI50,OVCAR-5 ovarian,16.3 µM
same,TGI,OVCAR-5 ovarian,> 100 µM
same,GI50,U251 CNS,4.1 µM
same,TGI,U251 CNS,> 100 µM
same,GI50,CCRF-CEM leukemia,7.08 µM
same,TGI,CCRF-CEM leukemia,> 100 µM
same,GI50,HCT-15 colon,5.02 µM
same,TGI,HCT-15 colon,> 100 µM
same,GI50,UACC-257 melanoma,8.52 µM
same,TGI,UACC-257 melanoma,65.7 µM
same,GI50,PC-3 prostate,7.81 µM
same,TGI,PC-3 prostate,75.1 µM
same,GI50,SF-539 CNS,12.2 µM
same,TGI,SF-539 CNS,> 100 µM
same,GI50,CAKI-1 renal,4.01 µM
same,TGI,CAKI-1 renal,61.1 µM
same,GI50,HOP-92 NSCLC,0.947 µM
same,TGI,HOP-92 NSCLC,9.17 µM
same,GI50,SF-268 CNS,8.19 µM
same,TGI,SF-268 CNS,> 100 µM
same,GI50,DU-145 prostate,6.22 µM
same,TGI,DU-145 prostate,> 100 µM
same,GI50,NCI-H23 lung,10.2 µM
same,TGI,NCI-H23 lung,> 100 µM
same,GI50,MOLT-4 leukemia,6.72 µM
same,TGI,MOLT-4 leukemia,46.2 µM
same,GI50,A498 renal,2.64 µM
same,TGI,A498 renal,36.5 µM
same,GI50,HT29 colon,5.51 µM
same,TGI,HT29 colon,98.3 µM
same,GI50,HCC-2998 colon,7.74 µM
same,TGI,HCC-2998 colon,> 100 µM
same,GI50,SF-295 CNS,4.92 µM
same,TGI,SF-295 CNS,35.9 µM
same,GI50,IGROV1 ovarian,12.6 µM
same,TGI,IGROV1 ovarian,> 100 µM
same,GI50,NCI/ADR-RES ovarian,4.44 µM
same,TGI,NCI/ADR-RES ovarian,63.2 µM
same,GI50,RPMI-8226 leukemia,6.83 µM
same,TGI,RPMI-8226 leukemia,34.8 µM
same,GI50,SK-MEL-5 melanoma,4.17 µM
same,TGI,SK-MEL-5 melanoma,16.4 µM
same,GI50,OVCAR-4 ovarian,9.78 µM
same,TGI,OVCAR-4 ovarian,> 100 µM
same,GI50,HS 578T breast,13.2 µM
same,TGI,HS 578T breast,> 100 µM
same,GI50,MDA-MB-231 breast,12.6 µM
same,TGI,MDA-MB-231 breast,> 100 µM
same,GI50,SN12C renal,5.1 µM
same,TGI,SN12C renal,> 100 µM
same,GI50,M14 melanoma,8.99 µM
same,TGI,M14 melanoma,38.1 µM
same,GI50,UACC-62 melanoma,4.96 µM
same,TGI,UACC-62 melanoma,25.4 µM
same,GI50,TK-10 renal,15.5 µM
same,TGI,TK-10 renal,80.7 µM
same,GI50,HL-60(TB) leukemia,8 µM
same,TGI,HL-60(TB) leukemia,36.7 µM
same,GI50,SK-MEL-28 melanoma,5.43 µM
same,TGI,SK-MEL-28 melanoma,41 µM
same,GI50,ACHN renal,5.33 µM
same,TGI,ACHN renal,78.1 µM
same,GI50,KM12 colon,6.5 µM
same,TGI,KM12 colon,> 100 µM
same,GI50,HCT-116 colon,3.77 µM
same,TGI,HCT-116 colon,15.6 µM
same,GI50,786-0 renal,5.98 µM
same,TGI,786-0 renal,44.1 µM
same,GI50,OVCAR-8 ovarian,6.7 µM
same,TGI,OVCAR-8 ovarian,> 100 µM
same,GI50,SK-MEL-2 melanoma,8 µM
same,TGI,SK-MEL-2 melanoma,28.8 µM
same,GI50,NCI-H460 lung,3.61 µM
same,TGI,NCI-H460 lung,26.7 µM
same,GI50,SK-OV-3 ovarian,11.1 µM
same,TGI,SK-OV-3 ovarian,> 100 µM
same,GI50,SW-620 colon,4.81 µM
same,TGI,SW-620 colon,> 100 µM
same,GI50,BT-549 breast,14.3 µM
same,TGI,BT-549 breast,65.3 µM
same,GI50,RXF 393 renal,5.22 µM
same,TGI,RXF 393 renal,64.8 µM
same,GI50,OVCAR-3 ovarian,7.45 µM
same,TGI,OVCAR-3 ovarian,28.7 µM
same,GI50,HOP-62 NSCLC,12.1 µM
same,TGI,HOP-62 NSCLC,> 100 µM
same,GI50,LOX IMVI melanoma,4.51 µM
same,TGI,LOX IMVI melanoma,24.6 µM
same,GI50,COLO 205 colon,4.44 µM
same,TGI,COLO 205 colon,16.2 µM
same,GI50,MALME-3M melanoma,15.3 µM
same,TGI,MALME-3M melanoma,87.4 µM
same,GI50,MCF7 breast,3.97 µM
same,TGI,MCF7 breast,44.7 µM
same,GI50,SNB-19 CNS,6.8 µM
same,TGI,SNB-19 CNS,> 100 µM
same,GI50,NCI-H522 lung,7.44 µM
same,TGI,NCI-H522 lung,40.7 µM
same,GI50,SNB-75 CNS,4.12 µM
same,TGI,SNB-75 CNS,57.5 µM
same,GI50,EKVX NSCLC,7.55 µM
same,TGI,EKVX NSCLC,> 100 µM
same,GI50,A549 NSCLC,4.21 µM
same,TGI,A549 NSCLC,> 100 µM
same,GI50,UO-31 renal,5.09 µM
same,TGI,UO-31 renal,72.8 µM
same,GI50,NCI-H226 lung,10.8 µM
same,TGI,NCI-H226 lung,33.2 µM
